The values below come from BindingDB's records for doi:10.1021/ml3003346 (2012).

This test can be described thus: Inhibition of EZH2-mediated proliferation of human LNCaP cells after 6 days by chemiluminescence analysis.

pIC50: −log10 of the molar value.

One may read the pIC50 as the IC50 on a negative log10 scale, so that one unit is a factor of ten. Read a high pIC50 as a small IC50. For `Cc1cc(C)c(CNC(=O)c2cc(-c3ccc(N4CCN(C)CC4)nc3)cc3c2cnn3C(C)C)c(=O)[nH]1`, the pIC50 was 5.35.
